For one data set, the system named is CHO-env (gp120+) cells. Kind of data set: Cell cytotoxicity assay (CellTiter Glo), CHO-env. In kind it is cell-based. The following applies: 14 h; at 310 nM and 1.85 μM. The procedure:
(§1) Wild-type HIV-1 env expressing CHO-env cells and CHO-pSv (env negative isogenic control) were a gift from Dr. Edward Berger (NIH), however, they were developed by Nicholas and coworkers.^55 CHO-pSv cells were grown in DMEM base media described below while CHO-env cells were grown in selection medium, which consists of base medium containing 0.25 μM methotrexate (MTX, Aldrich). *Note: Decrease in envelope expression in CHO-env cells was observed upon several passages and it is recommended to maintain low passage stocks of cells in liquid nitrogen.
(§2) Cell Cytotoxicity Assay (CellTiter Glo)
(§3) ***Note: all incubations and dilutions in CHO-culture media (+MTX for CHO-env)
(§4) ***All incubations performed in 96-well plates (clear bottom, black sides; Costar#3603) in triplicate at 37° C., 5% CO2 in moist environment.
(§5) Confluent (˜80%) T-75 flasks of CHO-env and/or CHO-pSv were washed once with DPBS (3 mL), detached, counted and then centrifuged. […]
(§6) Serial dilutions (1/6) of molecules made in empty 96-well plates using multichannel pipette, and then transferred to plates containing seeded cells (50 μL). […] Luminescence monitored on Biotek Synergy 2 microplate reader.
(§7) % cytotoxicity above background calculated by the following formulas: % CDC=[100−((sample−max kill)/(no molecule−max kill))*100] […]

A further data set concerns CHO-pSV (gp120−) cells. In words: Cell cytotoxicity assay (CellTiter Glo), CHO-pSV. In kind it is cell-based. The settings on record: 14 h incubation; concentrations as high as 67 μM. The protocol:
as §1, §2, §3, §4, §5, §6, §7
Background: In ATP-based viability assays light output follows the ATP content of the culture.

Structures are written as SMILES.

As for `COc1cccc2c1C(=O)c1c(O)c3c(c(O)c1C2=O)C[C@@](O)(C(=O)CO)C[C@@H]3O[C@H]1C[C@H](N)[C@H](O)[C@H](C)O1` [doxorubicin], the “toxicity at low concentrations” value in the data set on CHO-env (gp120+) cells is “no toxicity was observed”. The non-specific cytotoxicity result in the data set on CHO-pSV (gp120−) cells was “non-specifically toxic”.

For the origin of these results see patent US9745334B2, “Cytotoxic-drug delivering molecules targeting HIV (CDM-Hs), cytotoxic activity against the human immunodeficiency virus and methods of use” (YALE UNIVERSITY, priority 2012, dated 2017).
